Reference: patent US20090311279A1, “Colorectal Cancer Antigen” (National Institutes of Health, priority 2004, published 2009)

What was measured:
Assay type in all cases: cell-based, human
[1] = test system: CD4+ clone C111 T cells; 1681 CD40L B cells (HLA-DRβ1*0402); assay: Peptide-pulsed 1681 CD40L B cells, IFN-γ release from clone C111 by ELISA; settings: 18 hrs
Description: (§1) Peptides of 20 or 21 amino acids in length that overlapped by 15 amino acids that were encoded by the long open reading frame of the original cDNA clone that was isolated were synthesised by solid-phase method using a peptide synthesiser (AMS 422; Gilson Co., Inc. Middleton, Wis.). The purity of the peptides was verified by mass spectrometry (Tuft's Core Facility, Boston, Mass.). […] After three hours, 1-5×10^4 T cells were added to the wells in 150 μl/well of medium and incubated for 18 hours at 37° C. and 5% CO2, followed by measurement of INF-γ release by ELISA.
(§2) Peptides that were 20 or 21 amino acids in length and that overlapped by either 14 or 16 amino acids, were than synthesised and tested for their ability to sensitise target cells for recognition by C111 T cells. Since autologous normal B cells could not be efficiently expanded, allogeneic normal B cells expressing either DRβ1*0402 or DRβ1*1301 were used to carry out these assays.
(§3) The 1681 and 1847 CD40L stimulated normal B cell lines shared expression of HLA-DRβ1*0402 and HLA-DRβ1*1301 molecules, respectively, with the autologous tumour cell line. These cells were incubated with the panel of peptides and then tested for their ability to stimulate cytokine release from C111 T cells.

[2] = test system: CD4+ clone C111 T cells; 1847 CD40L B cells (HLA-DRβ1*1301); assay: Peptide-pulsed 1847 CD40L B cells, IFN-γ release from clone C111 by ELISA; settings: 18 hrs
Description: as §1, §2, §3

C111 T cells = assay: Peptide pulsing of target cells expressing HLA-DRβ1*0402 or 1301, cytokine release from C111 T cells; settings: 1681 and 1847 CD40L B cells pulsed with peptide
Description: Peptides of 20 or 21 amino acids in length that overlapped by 15 amino acids that were encoded by the long open reading frame of the original cDNA clone that was isolated were synthesised by solid-phase method using a peptide synthesiser (AMS 422; Gilson Co., Inc. Middleton, Wis.). The purity of the peptides was verified by mass spectrometry (Tuft's Core Facility, Boston, Mass.). Allogeneic B cells (1×10^5 cells/well) that expressed either the DRβ1*0402 or the DRβ1*1301 molecules were incubated with 50 μg/ml in 100 μl/well of ISCOVE'S medium plus 10% HS in flat bottom-96-well plates. After three hours, 1-5×10^4 T cells were added to the wells in 150 μl/well of medium and incubated for 18 hours at 37° C. and 5% CO2, followed by measurement of INF-γ release by ELISA.
as §2
The 1681 and 1847 CD40L stimulated normal B cell lines shared expression of HLA-DRβ1*0402 and HLA-DRβ1*1301 molecules, respectively, with the autologous tumour cell line. […]

[3] = 1681 CD40LB pulsed with peptide 12.5 μg/ml
[4] = 1681 CD40LB pulsed with peptide 25 μg/ml
[5] = 1681 CD40LB pulsed with peptide 26.25 μg/ml
[6] = 1681 CD40LB pulsed with peptide 50 μg/ml
[7] = 1681 CD40LB pulsed with peptide 100 μg/ml
[8] = 1847 CD40LB pulsed with peptide 12.5 μg/ml
[9] = 1847 CD40LB pulsed with peptide 25 μg/ml
[10] = 1847 CD40LB pulsed with peptide 26.25 μg/ml
[11] = 1847 CD40LB pulsed with peptide 50 μg/ml
[12] = 1847 CD40LB pulsed with peptide 100 μg/ml

Row | Sequence | IFN-γ release from clone C111 [1, 3] | IFN-γ release from clone C111 [1, 4] | IFN-γ release from clone C111 [1, 5] | IFN-γ release from clone C111 [1, 6] | IFN-γ release from clone C111 [1, 7] | IFN-γ release from clone C111 [2, 8] | IFN-γ release from clone C111 [2, 9] | IFN-γ release from clone C111 [2, 10] | IFN-γ release from clone C111 [2, 11] | IFN-γ release from clone C111 [2, 12] | cytokine release from C111 T cells (C111 T cells)
1 | LQAAGLVPKAALLLRARRAP [COA-1-derived overlapping peptide] | < 7.8 pg/mL | < 7.8 pg/mL | < 7.8 pg/mL | 12 pg/mL | 21 pg/mL | < 7.8 pg/mL | < 7.8 pg/mL | < 7.8 pg/mL | 32 pg/mL | 52 pg/mL | –
2 | ASAFEIFSTFPPTLYQDDTL [COA-1-derived overlapping peptide] | – | – | – | – | – | < 7.8 pg/mL | < 7.8 pg/mL | < 7.8 pg/mL | < 7.8 pg/mL | < 7.8 pg/mL | –
3 | FSTFPPTLYQDDTLTLQAAG (listed as Homo sapiens) [COA-1-derived overlapping peptide] | < 7.8 pg/mL | 69 pg/mL | < 7.8 pg/mL | 236 pg/mL | 105 pg/mL | 79 pg/mL | 296 pg/mL | < 7.8 pg/mL | 397 pg/mL | 226 pg/mL | stimulated significant cytokine release
4 | TLYQDDTLTLQAAGLVPKAA (listed as Homo sapiens) [COA-1-derived overlapping peptide] | < 7.8 pg/mL | < 7.8 pg/mL | < 7.8 pg/mL | 159 pg/mL | 51 pg/mL | < 7.8 pg/mL | < 7.8 pg/mL | < 7.8 pg/mL | 326 pg/mL | 79 pg/mL | stimulated significant cytokine release
5 | DDTLTLQAAGLVPKAALLLRA [COA-1-derived overlapping peptide] | < 7.8 pg/mL | < 7.8 pg/mL | < 7.8 pg/mL | 16 pg/mL | 11 pg/mL | < 7.8 pg/mL | < 7.8 pg/mL | < 7.8 pg/mL | 33 pg/mL | 22 pg/mL | –
